Earlier results on one compound are cited in patent US11564907B2, “Methods and compositions for the treatment of retinopathy and other ocular diseases” (Lankenau Institute for Medical Research, priority 2014, dated 2023).

For the data set, the system named is allogeneic mouse concepti. The settings on record: pregnant mice; Munn et al. (1998), Mellor et al. (2001).

Take `Cn1cc(C[C@H](N)C(=O)O)c2ccccc21` [1-methyl-tryptophan]: the “rejection of allogeneic mouse concepti” value is recorded as “could elicit T cell-dependent rejection of allogeneic mouse concepti”.
